Assay results reported in ChEMBL document CHEMBL4138295, “Late-Stage Microsomal Oxidation Reduces Drug-Drug Interaction and Identifies Phosphodiesterase 2A Inhibitor PF-06815189” (ACS Med Chem Lett, 2018).
One block for each molecule: values may come before it. The source made the active and inactive calls. The calls are words filed in the database; no cut-off is given here.

What was measured:
[1] = Apparent permeability in RRCK cells; type: ADME, cell-based, Canis lupus familiaris; conditions: dog, mdckii-le
[2] = target: cGMP-dependent 3',5'-cyclic phosphodiesterase (Homo sapiens, UniProt O00408); assay: Inhibition of human PDE2A1 using 3',5'-[3H]cGMP as substrate measured after 30 mins by Yttrium silicate scintillation proximity assay
cGMP-dependent 3',5'-cyclic phosphodiesterase, sequence (O00408 whole entry): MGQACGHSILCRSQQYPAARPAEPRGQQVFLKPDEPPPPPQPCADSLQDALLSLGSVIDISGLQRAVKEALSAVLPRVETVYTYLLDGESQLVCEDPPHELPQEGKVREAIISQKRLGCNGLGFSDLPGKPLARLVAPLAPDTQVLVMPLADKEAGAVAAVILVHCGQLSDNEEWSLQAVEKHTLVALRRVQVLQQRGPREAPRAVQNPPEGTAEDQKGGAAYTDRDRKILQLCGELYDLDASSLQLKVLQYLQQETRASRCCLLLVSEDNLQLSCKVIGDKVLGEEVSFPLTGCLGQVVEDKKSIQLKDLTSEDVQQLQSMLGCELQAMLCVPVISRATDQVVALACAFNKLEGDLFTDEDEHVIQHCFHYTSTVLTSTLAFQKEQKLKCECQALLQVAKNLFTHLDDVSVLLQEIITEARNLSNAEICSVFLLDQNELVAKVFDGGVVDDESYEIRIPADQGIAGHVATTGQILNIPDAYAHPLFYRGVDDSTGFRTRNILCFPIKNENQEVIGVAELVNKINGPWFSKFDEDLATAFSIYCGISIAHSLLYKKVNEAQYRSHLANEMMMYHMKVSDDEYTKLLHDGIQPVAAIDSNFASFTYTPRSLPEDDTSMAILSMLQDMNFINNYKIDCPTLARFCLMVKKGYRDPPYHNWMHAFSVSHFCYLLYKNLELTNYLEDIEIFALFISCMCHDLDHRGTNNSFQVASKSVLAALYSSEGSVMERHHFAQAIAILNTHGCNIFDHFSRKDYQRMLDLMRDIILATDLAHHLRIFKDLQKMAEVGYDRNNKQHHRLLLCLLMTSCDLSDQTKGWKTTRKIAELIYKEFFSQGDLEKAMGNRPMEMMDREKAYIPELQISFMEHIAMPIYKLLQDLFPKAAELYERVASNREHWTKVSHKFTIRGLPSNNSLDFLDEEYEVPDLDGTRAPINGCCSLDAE

[3] = Drug recovery in Wistar-Han rat at 1 mg/kg, iv or 5 mg/kg, po via gavage measured up to 24 hrs by LC-MS/MS analysis; type: ADME, organism-based; conditions: in vivo, read-out: Drug recovery
Rattus norvegicus [4] = assay: Oral bioavailability in Wistar-Han rat at 5 mg/kg administered via gavage by LC-MS/MS analysis; type: ADME, organism-based; conditions: in vivo
[5] = Half life in Wistar-Han rat at 1 mg/kg, iv or 5 mg/kg, po via gavage by LC-MS/MS analysis; type: ADME, organism-based; conditions: in vivo
Rattus norvegicus [6] = assay: Volume of distribution at steady state in Wistar-Han rat at 1 mg/kg, iv or 5 mg/kg, po via gavage by LC-MS/MS analysis; type: ADME, organism-based; conditions: in vivo
Cavia porcellus = assay: Inhibition of histamine-mediated increase in vascular permeability in guinea pig assessed as reduction in extravasation of Evan's blue dye-labeled albumin from blood to skin at 0.3 to 10 mg/kg, sc measured after 30 mins by spectrophotometric method; type: functional, organism-based
Homo sapiens [7] = species: Homo sapiens; assay: Selectivity ratio of IC50 for PDE5A1 (unknown origin) to IC50 for human PDE2A1
[8] = target: cGMP-specific 3',5'-cyclic phosphodiesterase (Homo sapiens, UniProt O76074); assay: Inhibition of PDE5A1 (unknown origin) using 3',5'-[3H]cGMP as substrate measured after 30 mins by Yttrium silicate scintillation proximity assay
Homo sapiens [9] = species: Homo sapiens; assay: Inhibition of sodium channel site 2 (unknown origin) at 10 uM relative to control
Canis familiaris [10] = assay: Volume of distribution at steady state in Beagle dog at 1 mg/kg, iv or po via gavage by LC-MS/MS analysis; type: ADME, organism-based, Canis lupus familiaris; conditions: in vivo
Canis familiaris [11] = assay: Half life in Beagle dog at 1 mg/kg, iv or po via gavage by LC-MS/MS analysis; type: ADME, organism-based, Canis lupus familiaris; conditions: in vivo
[12] = Oral bioavailability in Beagle dog at 5 mg/kg administered via gavage by LC-MS/MS analysis; type: ADME, organism-based, Canis lupus familiaris; conditions: in vivo
[13] = Drug recovery in Beagle dog at 1 mg/kg, iv or po via gavage measured up to 24 hrs by LC-MS/MS analysis; type: ADME, organism-based, Canis lupus familiaris; conditions: in vivo, read-out: Drug recovery
Cynomolgus monkey [14] = assay: Volume of distribution at steady state in cynomolgus monkey at 1 mg/kg, iv or po via gavage by LC-MS/MS analysis; type: ADME, organism-based, Macaca fascicularis; conditions: in vivo
Cynomolgus monkey [15] = assay: Half life in cynomolgus monkey at 1 mg/kg, iv or po via gavage by LC-MS/MS analysis; type: ADME, organism-based, Macaca fascicularis; conditions: in vivo
[16] = Oral bioavailability in cynomolgus monkey at 5 mg/kg administered via gavage by LC-MS/MS analysis; type: ADME, organism-based, Macaca fascicularis; conditions: in vivo
[17] = Drug recovery in cynomolgus monkey at 1 mg/kg, iv or po via gavage measured up to 24 hrs by LC-MS/MS analysis; type: ADME, organism-based, Macaca fascicularis; conditions: in vivo, read-out: Drug recovery
Cytochrome P450 3A4 = Cytochrome P450 3A4 (Homo sapiens, UniProt P08684); assay: Binding affinity to recombinant human CYP3A4 expressed in microsomes at 1 uM after 3 to 60 mins in presence of NADPH by HPLC-MS analysis; type: ADME
Cytochrome P450 3A4, sequence (P08684 whole entry): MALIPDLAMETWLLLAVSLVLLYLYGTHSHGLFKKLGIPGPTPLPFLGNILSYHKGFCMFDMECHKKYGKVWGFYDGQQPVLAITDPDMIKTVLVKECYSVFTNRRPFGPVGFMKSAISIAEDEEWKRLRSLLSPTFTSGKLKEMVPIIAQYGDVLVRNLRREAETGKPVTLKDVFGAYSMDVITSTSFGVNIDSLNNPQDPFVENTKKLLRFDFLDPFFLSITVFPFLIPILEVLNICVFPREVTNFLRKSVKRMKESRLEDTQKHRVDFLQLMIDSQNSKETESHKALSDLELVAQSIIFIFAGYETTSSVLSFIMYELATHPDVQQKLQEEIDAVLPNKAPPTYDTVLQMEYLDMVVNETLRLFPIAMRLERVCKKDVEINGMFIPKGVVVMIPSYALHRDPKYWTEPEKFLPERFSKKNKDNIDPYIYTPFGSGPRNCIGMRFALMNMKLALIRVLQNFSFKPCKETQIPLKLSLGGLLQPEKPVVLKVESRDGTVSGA

[18] = Drug metabolism in cynomolgus monkey liver microsomes assessed as PF-06815189 formation at 20 uM measured after 50 mins by UHPLC-UV analysis; type: ADME, Macaca fascicularis, microsome
[19] = Drug metabolism in cynomolgus monkey liver microsomes assessed as 7-(3-(hydroxymethyl)-1-methyl-5-(4-(trifluoromethyl)phenyl)-1H-pyrazol-4-yl)-2,5-dimethylimidazo[1,5-f][1,2,4]triazin-4(3H)-one formation at 20 uM measured after 50 mins by UHPLC-UV analysis; type: ADME, Macaca fascicularis, microsome
[20] = Drug metabolism in cynomolgus monkey liver microsomes assessed as 5-(hydroxymethyl)-7-(3-(hydroxymethyl)-1-methyl-5-(4-(trifluoromethyl)phenyl)-1H-pyrazol-4-yl)-2-methylimidazo[1,5-f][1,2,4]triazin-4(3H)-one formation at 20 uM measured after 50 mins by UHPLC-UV analysis; type: ADME, Macaca fascicularis, microsome

- Papp [1]: 17 ×10⁻⁶ cm/s
- IC50 [2]: 6.9 nM
Compound: Cc1nn2c(-c3c(CO)nn(C)c3-c3ccc(C(F)(F)F)cc3)nc(C)c2c(=O)[nH]1

- Papp [1]: 5 ×10⁻⁶ cm/s
Compound: Cc1nn2c(-c3c(CO)nn(C)c3-c3ccc(C(F)(F)F)cc3)nc(CO)c2c(=O)[nH]1

- dose excreted at 24 h [3]: 22%
- F (Rattus norvegicus [4]): 50%
- half-life [5]: 1.2 h
- Vdss (Rattus norvegicus [6]): 1.5 L/kg
- Ratio IC50 (Homo sapiens [7]): 1000
- IC50 [8]: 2440 nM
- Papp [1]: 8 ×10⁻⁶ cm/s
- inhibition (Homo sapiens [9]): 17%
- IC50 [2]: 0.4 nM
- Vdss (Canis familiaris [10]): 0.4 L/kg
- t1/2 (Canis familiaris [11]): 4.8 h
- bioavailability [12]: 79%
- dose excreted at 24 h [13]: 48%
- Vdss (Cynomolgus monkey [14]): 0.8 L/kg
- t1/2 (Cynomolgus monkey [15]): 3.6 h
- bioavailability [16]: 61%
- dose excreted at 24 h [17]: 26%
Compound: Cc1nn2c(-c3c(C)nn(C)c3-c3ccc(C(F)(F)F)cc3)nc(CO)c2c(=O)[nH]1
- inhibition (Cavia porcellus): Active

- Activity (Cytochrome P450 3A4): Active
- IC50 [2]: 0.6 nM
- Drug metabolism [18]: Metabolite_Detected
- Drug metabolism [19]: Metabolite_Detected
- Drug metabolism [20]: Metabolite_Detected
Compound: Cc1nn2c(-c3c(C)nn(C)c3-c3ccc(C(F)(F)F)cc3)nc(C)c2c(=O)[nH]1
